Test results reported in patent US20220175860A1, “DUNALIELLA ALGA PREPARATION FOR PREVENTION AND/OR TREATMENT OF A NEURODEGENERATIVE DISEASE, A DISORDER ASSOCIATED WITH PROTEIN MISFOLDING AND COGNITIVE DECLINE” (TEL HASHOMER MEDICAL RESEARCH INFRASTRUCTURE AND SERVICES …, priority 2019, published 2022).
Read-outs that look alike come from different tables or passages of the source.

Tests used:
[1] = Tissue carotenoids by HPLC in Tg2576 mice; format: in vivo; details: Tg2576 study, mice fed Dunaliella diet vs control diet
From the text: In order to assess whether carotenoid level was higher in brain tissue of Tg2576 mice fed with the Dunaliella diet as compared to the control group, mice brain carotenoids were extracted and then measured using HPLC.

[2] = Tissue carotenoids by HPLC in 5×FAD mice; details: for Amount in brain tissues: 5×FAD mice fed Dunaliella algae diet vs regular diet, HPLC; for Accumulation in liver, fat and brain tissues: 5×FAD study, Dunaliella diet group vs control group
[3] = system: blood brain barrier (BBB) in-vitro model (endothelial cells / glial cells); experiment: In vitro blood brain barrier (BBB) cell culture model, HPLC of carotenoids; format: in vitro ADME, porcine brain endothelial cells, new born rat glial cells
Method: FIG. 5A-FIG. 5C: Schematic drawings of the in vitro blood brain barrier (BBB) cell culture system. The model consists of a monolayer of endothelial cells, forming tight junctions that are grown on a microporous membrane filter culture insert (luminal side) and glial cells seeded at the abluminal side of the filter. Low Density Lipoprotein (LDL, 100 μl 1,600 μg/ml) from a healthy volunteer is added to the luminal side. Cells are incubated for 24 hours and then samples are collected from the luminal and abluminal side and analyzed.
An in vitro model of the blood brain barrier (BBB) was used. The model consists of a monolayer of endothelial cells, obtained from primary cultures of endothelial cells established from freshly collected porcine brain forming tight junctions that are grown on a microporous membrane filter culture insert (the “Luminal side” in FIG. 6) and of a monolayer of glial cells extracted from new born rats' cortex that are seeded at the abluminal side of the filter (the “Abluminal side” in FIG. 6). Low density lipoprotein (LDL, 100 μl, 1,600 μg/ml from a healthy volunteer) was added to the luminal side. Cells were then incubated for 24 hours and thereafter samples were collected and analyzed using HPLC. The model was prepared by first seeding the glial cells on the abluminal side of a filter, a week later, the above-described endothelial cells were seeded on the luminal side of the filter and two days later LDL was added to the luminal side of the filter as indicated above.
LDL was obtained from healthy volunteers by sequential ultracentrifugation (density, 1.063 g/ml), and the concentration was determined by the Lowry method.
Using the “BBB in-vitro model” described above and schematically shown in FIG. 5A, 5B, 5C, glial and endothelial cells were incubated for 24 hours in the presence of LDL (inherently containing all-trans and 9-cis β-carotene) and then samples were collected and carotenoids were extracted and analyzed using HPLC.

[4] = carotenoids in human LDL added to luminal side, 24 hours incubation, HPLC

Row | Structure (SMILES) | Tissue levels (liver, fat, brain) [1] | Amount in brain tissues [2] | Accumulation in liver, fat and brain tissues [2] | Crossing of the BBB (luminal to abluminal side) [3, 4] | Crossing of the BBB (luminal to abluminal side) [3]
1 | CC1=C(/C=C/C(C)=C\C=C\C(C)=C\C=C\C=C(C)\C=C\C=C(C)\C=C\C2=C(C)CCCC2(C)C)C(C)(C)CCC1 [9-cis β Carotene, 9-cis β-carotene] | much higher levels | significantly higher amounts | much higher levels | crossed the BBB | –
2 | CC1=C(/C=C/C(C)=C/C=C/C(C)=C/C=C/C=C(C)/C=C/C=C(C)/C=C/C2=C(C)CCCC2(C)C)C(C)(C)CCC1 [all-trans β Carotene, all-trans β-carotene] | much higher levels | significantly higher amounts | much higher levels | crossed the BBB | –
3 | CC(C)=CCC/C(C)=C/C=C/C(C)=C/C=C/C(C)=C/C=C/C=C(C)/C=C/C=C(C)/C=C/C=C(\C)CCC=C(C)C [lycopene, reference compound] | – | – | – | – | did not cross the BBB
